Test results as given in patent US8207156B2, “Substituted pyrazoline compounds, their preparation and use as medicaments” (Laboratorios Del Dr. Esteve, S.A., priority 2005, dated 2012).
Counter-ions that a name gives are not always drawn.

Target: T1, CB1 receptor (UniProt P20272)
T1 construct: other: compound at 10^−7 M; radioligand [3H]-CP55940; other: compound at 10^−8 M
Assay: In-vitro determination of affinity to CB1/CB2-receptors (radioligand [3H]-CP55940 binding)
Settings: for Inhibition [%], 10^−7 M: compound at 10^−7 M; for Inhibition [%], 10^−8 M: compound at 10^−8 M
Description: The in-vitro determination of the affinity of the inventive substituted pyrazoline compounds to CB1/CB2-Rezeptors is carried out as described in the publication of Ruth A. Ross, Heather C. Brockie et al., “Agonist-inverse agonist characterization at CB1 and CB2 cannabinoid receptors of L-759633, L759656 and AM630”, British Journal of Pharmacology, 126, 665-672, (1999), whereby the transfected human CB1 and CB2 receptors of Receptor Biology, Inc. are used. The radioligand used for both receptors is [^3H]-CP55940. The respective parts of the description is hereby incorporated by reference and forms part of the present disclosure.
Binding affinity to CB1 receptor was evaluated according to a modification of the method described by Govaerts et al., Eur J Pharmac Sci 23, 233-243 (2004). The respective parts of the description is hereby incorporated by reference and forms part of the present disclosure.
Briefly, cerebellum from male wistar rats (250-300 g) were carefully dissected on ice and homogenates were prepared with Potter-Helveheim in a cold 50 mM Tris-HCl solution containing 5 mM MgCl2, 1 mM EDTA and 0.25 M sucrose, pH 7.4. The suspension was centrifuged at 1,000×g for 5 minutes. The supernatants were collected and centrifuged 50,000×g for 15 minutes. The resulting pellets were then resuspended in Tris-HCl buffer without sucrose, homogenized and incubated for 15 min at 37° C. in an orbital shaker bath and centrifuged again at 50,000×g for 15 min. Pellets were weighted, resuspended in Tris-HCl buffer without sucrose, homogenized with Ultraturrax at 13,500 rpm for 3×5 seconds and alicuoted in 0.9 ml volumes in Eppendorf tubes. Alicuotes were centrifuged at 20,800×g for 5 minutes, supernatants discarded and pellets were frozen at −80° C. until use. Total protein concentration was determined using the Bio-Rad Lowry method based kit. Competitive binding experiments were performed in presence of 1 nM [^3H]-CP 55,940 in siliconized glass tubes containing 100 μg protein/tube resuspended in 1 ml final volume of 50 mM Tris-HCl, 5 mM MgCl2, 1 mM EDTA, 0.5% (w/v) bovine serum albumin, pH 7.4. Compounds were present at various concentrations and the non specific binding was determined in the presence of 10 μM HU-210. After 1 hour incubation at 30° C., the suspension was rapidly filtered through 0.5% PEI pre-treated GF/B fiber filters on a 96-well harvester and washed 3 times with 3 ml ice-cold binding buffer without bovine serum albumin. Radioactivity on filters was measured with Wallac Winspectral 1414 counter by liquid scintillation in 6 ml Ecoscint H (National Diagnostics, U.K.). Assays were made in triplicates.
Binding data were analyzed by non-linear regression with the software GraphPad Prism Version 3.03.

Structure (SMILES)	Inhibition [%], 10^−7 M	Inhibition [%], 10^−8 M
O=C(NN1CCCCCC1)C1=NN(c2ccc(Cl)cc2Cl)[C@H](c2ccc(Cl)cc2)C1 [Example 185, (S)-5-(4-Chloro-phenyl)-1-(2,4-dichloro-phenyl)-4,5-dihydro-1H-pyrazole-3-carboxylic acid azepan-1-ylamide]	34.1%	−11.6%
COC[C@H]1CCCN1NC(=O)C1=NN(c2ccc(Cl)cc2Cl)C(c2ccc(Cl)cc2)C1 (some centres unmarked) [Example 13, 5-(4-Chloro-phenyl)-1-(2,4-dichloro-phenyl)-4,5-dihydro-1H-pyrazole-3-carboxylic acid (2-methoxymethyl-pyrrolidin-1-yl)-amide]	31.8%	14.3%
Cl.O=C(NN1CCCCCC1)C1=NN(c2ccc(Cl)cc2Cl)[C@H](c2ccc(Cl)cc2)C1 [Example 183, (S)-5-(4-Chloro-phenyl)-1-(2,4-dichloro-phenyl)-4,5-dihydro-1H-pyrazole-3-carboxylic acid azepan-1-ylamide hydrochloride]	31.9%	3.2%
COc1ccc(C2CC(C(=O)NN3CCCCCCC3)=NN2c2ccc(Cl)cc2Cl)cc1 (centres unmarked) [Example 148, 5-(4-methoxy-phenyl)-1-(2,4-dichloro-phenyl)-4,5-dihydro-1H-pyrazole-3-carboxylic acid azocan-1-ylamide]	80.3%	56.1%
Cl.O=C(NN1CCCCCCC1)C1=NN(c2ccc(Cl)cc2Cl)[C@H](c2ccc(Cl)cc2)C1 [Example 177, (S)-5-(4-Chloro-phenyl)-1-(2,4-dichloro-phenyl)-4,5-dihydro-1H-pyrazole-3-carboxylic acid azocan-1-ylamide hydrochloride]	22.2%	−5.4%
CN1CCN(C(=O)C2=NN(c3ccc(Cl)cc3Cl)C(c3ccc(Cl)cc3)C2)CC1.Cl (centres unmarked) [Example 195, [5-(4-Chloro-phenyl)-1-(2,4-dichloro-phenyl)-4,5-dihydro-1H-pyrazole-3-yl]-(4-methyl-piperazin-1-yl)-methanone hydrochloride]	5.8%	4.7%
CN(C)CCCNC(=O)C1=NN(c2ccc(Cl)cc2Cl)C(c2ccc(Cl)cc2)C1 (centres unmarked) [Example 73, 5-(4-Chloro-phenyl)-1-(2,4-dichloro-phenyl)-4,5-dihydro-1H-pyrazole-3-carboxylic acid (3-dimethylamino-propyl)-amide]	−18.9%	15.7%
O=C(NC1CCCCCC1)C1=NN(c2ccc(Cl)cc2Cl)[C@H](c2ccc(Cl)cc2)C1 [Example 186, (S)-5-(4-Chloro-phenyl)-1-(2,4-dichloro-phenyl)-4,5-dihydro-1H-pyrazole-3-carboxylic acid cycloheptylamide]	28.1%	3.2%
COc1ccc(C2CC(C(=O)NC3CCCCCC3)=NN2c2ccc(Cl)cc2Cl)cc1 (centres unmarked) [Example 132, 5-(4-methoxyphenyl)-1-(2,4-dichloro-phenyl)-4,5-dihydro-1H-pyrazole-3-carboxylic acid cycloheptylamide]	37.8%	18.2%
Cl.O=C(NN1CCCCC1)C1=NN(c2ccc(Cl)cc2Cl)C(c2ccc(O)cc2)C1 (centres unmarked) [Example 172, 1-(2,4-Dichloro-phenyl)-5-(4-hydroxy-phenyl)-4,5-dihydro-1H-pyrazole-3-carboxylic acid piperidin-1-ylamide hydrochloride]	1.4%	5.6%
Cl.O=C(NN1CCc2ccccc21)C1=NN(c2ccc(Cl)cc2Cl)[C@H](c2ccc(Cl)cc2)C1 [Example 182, (S)-5-(4-Chloro-phenyl)-1-(2,4-dichloro-phenyl)-4,5-dihydro-1H-pyrazole-3-carboxylic acid (2,3-dihydro-indol-1-yl)-amide hydrochloride]	31.7%	18.8%
Cl.O=C(NN1CCCCCCC1)C1=NN(c2ccc(Cl)cc2Cl)C(c2ccc(Cl)cc2)C1 (centres unmarked) [Example 145, 5-(4-Chloro-phenyl)-1-(2,4-dichloro-phenyl)-4,5-dihydro-1H-pyrazole-3-carboxylic acid azocan-1-ylamide hydrochloride]	57.6%	12.3%
CCCCNC(=O)C1=NN(c2ccc(Cl)cc2Cl)C(c2ccc(Cl)cc2)C1 (centres unmarked) [Example 72, 5-(4-Chloro-phenyl)-1-(2,4-dichloro-phenyl)-4,5-dihydro-1H-pyrazole-3-carboxylic acid butylamide]	19.6%	−10.2%
COc1ccc(C2CC(C(=O)O)=NN2c2ccc(Cl)cc2Cl)cc1 (centres unmarked) [Example 127, 1-(2,4-Dichloro-phenyl)-5-(4-methoxy-phenyl)-4,5-dihydro-1H-pyrazole-3-carboxylic acid]	7.8%	7.4%
O=C(NCCC1CCCC1)C1=NN(c2ccc(Cl)cc2Cl)C(c2ccc(Cl)cc2)C1 (centres unmarked) [Example 87, 5-(4-Chloro-phenyl)-1-(2,4-dichloro-phenyl)-4,5-dihydro-1H-pyrazole-3-carboxylic acid (2-cyclopentyl-ethyl)-amide]	15.2%	−2.4%
O=C(NN1CC2CCCC2C1)C1=NN(c2ccc(Cl)cc2Cl)[C@H](c2ccc(Cl)cc2)C1 (stereo partly drawn) [Example 184, (S)-5-(4-Chloro-phenyl)-1-(2,4-dichloro-phenyl)-4,5-dihydro-1H-pyrazole-3-carboxylic acid (hexahydro-cyclopenta[c]pyrrol-2-yl)-amide hydrochloride]	24.8%	5.7%
Cl.O=C(NN1CCc2ccccc21)C1=NN(c2ccc(Cl)cc2Cl)C(c2ccc(F)cc2)C1 (centres unmarked) [Example 179, 1-(2,4-Dichloro-phenyl)-5-(4-fluoro-phenyl)-4,5-dihydro-1H-pyrazole-3-carboxylic acid (2,3-dihydro-indol-1-yl)-amide hydrochloride]	33.9%	11.5%
O=C(O)C1=NN(c2ccc(Cl)cc2Cl)C(c2ccc(O)cc2)C1 (centres unmarked) [Example 180, 1-(2,4-Dichloro-phenyl)-5-(4-hydroxy-phenyl)-4,5-dihydro-1H-pyrazole-3-carboxylic acid]	9.3%	4.7%
Cl.O=C(NN1CCCCCCC1)C1=NN(c2ccc(Cl)cc2Cl)[C@@H](c2ccc(Cl)cc2)C1 [Example 176, (R)-5-(4-Chloro-phenyl)-1-(2,4-dichloro-phenyl)-4,5-dihydro-1H-pyrazole-3-carboxylic acid azocan-1-ylamide hydrochloride]	71.3%	29.5%
